The record followed here is ChEMBL document CHEMBL4196011, “The lead optimization of the polyamine conjugate of flavonoid with a naphthalene motif: Synthesis and biological evaluation” (Eur J Med Chem, 2018).

SMILES strings stand for the structures.

One series concerns HeLa. The series is described as follows: Antiproliferative activity against human HeLa cells after 48 hrs by MTT assay. The format is functional, cell-based. For orientation: Tetrazolium assays rely on reduction of a dye to a coloured formazan, in cell work by metabolically active cells.
For another series, the system named is HCT-116. The series is described as follows: Antiproliferative activity against human HCT116 cells after 48 hrs by MTT assay. As to conditions: HCT-116, 48 h. The format is functional, cell-based.
The next series deals with HepG2. The series is described as follows: Antiproliferative activity against human HepG2 cells after 48 hrs by MTT assay. The format is functional, cell-based. As to conditions: HepG2, 48 h.
The next series deals with HT-29. Briefly: Antiproliferative activity against human HT-29 cells after 48 hrs by MTT assay. The series is classed as functional, cell-based. As to conditions: HT-29, 48 h.
The subject of a further series is K562. The series is described as follows: Antiproliferative activity against human K562 cells after 48 hrs by MTT assay. The format is functional, cell-based. As to conditions: K562, 48 h.
Series [1] deals with Mus musculus. Briefly: Toxicity in Kunming mouse xenografted with […] H22 cells assessed as effect on liver weight index at 100 mg/kg, ig administered for 7 consecutive days. The series is classed as organism-based. As to conditions: in vivo, po.
Series [2] has as its system Mus musculus. Briefly: Toxicity in Kunming mouse xenografted with […] H22 cells assessed as effect on lung weight index at 100 mg/kg, ig administered for 7 consecutive days. The format is organism-based. As to conditions: in vivo, po. (Xenograft models place foreign cells or tissue in a host animal.)
Series [3] has as its system Mus musculus. The series is described as follows: Toxicity in Kunming mouse xenografted with […] H22 cells assessed as effect on kidney weight index at 100 mg/kg, ig administered for 7 consecutive days. The format is organism-based. As to conditions: in vivo, po.
Series [4] concerns Mus musculus. The series is described as follows: Toxicity in Kunming mouse xenografted with […] H22 cells assessed as effect on spleen weight index at 100 mg/kg, ig administered for 7 consecutive days. The format is organism-based. As to conditions: in vivo, po.
For series [5], the system named is Mus musculus. Briefly: Toxicity in Kunming mouse xenografted with […] H22 cells assessed as effect on heart weight index at 100 mg/kg, ig administered for 7 consecutive days. The format is organism-based. As to conditions: in vivo, po.
Series [6] has as its system Mus musculus. Briefly: Toxicity in Kunming mouse xenografted with […] H22 cells assessed as effect on body weight at 100 mg/kg, ig administered for 7 consecutive days. The series is classed as organism-based. As to conditions: in vivo, po.
Series [7] deals with H22. Briefly: Antitumor activity against […] xenografted in Kunming mouse assessed as tumor growth inhibition at 100 mg/kg, ig for 7 consecutive days measured on day 16. The format is functional. As to conditions: H22, po, 384 h, read-out: TGI.
Series [8] can be described thus: Toxicity in Kunming mouse assessed as maximum tolerated dose administered for 7 consecutive days. The format is organism-based. As to conditions: in vivo.
The test system of series [9] is H22. Briefly: Antitumor activity against […] xenografted in Kunming mouse assessed as tumor growth inhibition at 10 mg/kg, iv for 7 consecutive days measured on day 16. As to conditions: 384 h, read-out: TGI. The format is functional.
Series [10] in a line: Toxicity in iv dosed Kunming mouse assessed as maximum tolerated dose administered for 7 consecutive days. The series is classed as organism-based. As to conditions: in vivo.

On to `COc1c(-c2ccc(-c3ccccc3)cc2)oc2c(CNCCCCNCCCCN)cccc2c1=O`, for which the IC50 (usually the point on the concentration scale where inhibition reaches its midpoint) in the series with HeLa came to 18.6 µM; in the series on HCT-116 it was 20.1 µM; in the series on HepG2, 24.4 µM; in the series with HT-29, 25.6 µM; with K562 it was 19.8 µM.
For `COc1c(-c2ccc(-c3ccccc3)cc2)oc2c(CNCCCNCCCCN)cccc2c1=O`, the concentration for half-maximal inhibition (IC50) in the series with HeLa is 13.9 µM; in the series on HCT-116, 14.8 µM; with HepG2, 22.2 µM; in the series on HT-29, 31.4 µM; with K562, 15.8 µM.
For `O=c1c(O)c(-c2ccc(O)c(O)c2)oc2cc(O)cc(O)c12` [QUERCETIN], the Activity entry with Mus musculus [1], in the series with Mus musculus [2], in the series on Mus musculus [3], in the series on Mus musculus [4], with Mus musculus [5] and with Mus musculus [6] was “Non-Toxic” each time. The inhibition in vivo at 100 mg/kg in the series with H22 [7] lay within 34.3 to 38.7%.
For `O=C1c2c(O)ccc(O)c2C(=O)c2c(NCCNCCO)ccc(NCCNCCO)c21` [MITOXANTRONE], the IC50 is 2.35 µM in the series with HeLa; 1.61 µM with HCT-116; 18.6 µM in the series with HepG2; 21.7 µM in the series on HT-29; 4.55 µM in the series with K562.
On to `Cl.Cl.NCCCNCC(=O)NCc1cccc2c(=O)cc(-c3cccc4ccccc34)oc12`, for which, in [8], the maximum tolerated dose (MTD) – broadly, the highest dose tested that stayed within the study's limit of toxicity – at 7 days is 20 mg/kg.
With `COc1c(-c2ccc(-c3ccccc3)cc2)oc2c(CNCCCCN)cccc2c1=O`, the IC50 with HeLa came to 10.3 µM; with HCT-116, 16.4 µM; with HepG2 it was 16.2 µM; in the series on HT-29, 16.1 µM; in the series on K562, 24.4 µM.
In the same order, the values of `COc1c(-c2ccc(-c3ccccc3)cc2)oc2c(CNCCN)cccc2c1=O` are 18.7 µM, 24.1 µM, 19.9 µM, 18.9 µM and 25.9 µM.
`COc1c(-c2ccc(-c3ccccc3)cc2)oc2c(CNCCCN)cccc2c1=O.Cl.Cl`: the IC50 turned out to be 7.8 µM in the series on HeLa; 5.1 µM in the series with HCT-116; 10.4 µM with HepG2; 8.25 µM in the series with HT-29; 9.3 µM in the series on K562. The inhibition in vivo at 10 mg/kg in the series with H22 [9] worked out at 31.5%. The MTD at 7 days in series [10] is 15 mg/kg.
Regarding `COc1ccc2cc(-c3oc4c(CNCCCCNCCCCN)cccc4c(=O)c3OC)ccc2c1Br`, the IC50 was determined as 9.63 µM with HeLa; 19.3 µM in the series with HCT-116; 14.3 µM in the series with HepG2; 21.8 µM in the series with HT-29; 18.5 µM with K562.
On to `NCCCNCc1c(-c2ccc(-c3ccccc3)cc2)oc2ccccc2c1=O`, for which the half-inhibitory concentration (IC50) was 20.5 µM with HeLa; 23.4 µM in the series with HCT-116; above 50 µM in the series with HepG2; 24.7 µM with HT-29; 41.6 µM with K562.
In the same order, the values of `COc1ccc2cc(-c3oc4c(CNCCCN)cccc4c(=O)c3OC)ccc2c1Br` are 11.2 µM, 12.8 µM, 15.1 µM, 23.1 µM and 19.2 µM.
